Test results reported in patent US7906486B2, “Method of treating or preventing tissue deterioration, injury or damage due to disease of mucosa” (SciClone Pharmaceuticals, Inc., priority 2007, dated 2011).
Several values for one entry are separate records, joined by “and”; a condition that tells them apart may be missing. Equal entries are not always repeated.

Tested on: oral mucositis induced by acute radiation (40 Gy, left buccal cheek pouch)
Experiment: Oral mucositis induced by acute radiation in hamsters, mucositis scoring (Example 2, SCI-02)
Type: in vivo, Syrian Golden Hamsters
Design: key to peak mean mucositis score: 0 = normal to 5 = severe ulceration (visual scale); key to Mucositis score: 0: Pouch completely healthy. No erythema or vasodilation.; 1: Light to severe erythema and vasodilation. No erosion of mucosa.; 2: Severe erythema and vasodilation. Erosion of superficial aspects of mucosa leaving denuded areas. Decreased stippling of mucosa.; 3: Formation of off-white ulcers in one or more places. Ulcers may have a yellow/gray due to pseudomembrane. Cumulative size of ulcers should equal about ¼ of the pouch. Severe erythema and vasodilation.; 4: Cumulative seize of ulcers should equal about ½ of the pouch. Loss of pliability. Severe erythema and vasodilation.; 5: Virtually all of pouch is ulcerated. Loss of pliability (pouch can only partially be extracted from mouth)
Settings: for % Days >=3 / Days <3 / Days >=3 / Chi Sq v control: sc, days -1 to 20; for Mucositis score: Group 2 (SCV-07 100 μg/kg once daily, days -1 to 20), individual animals, two scores per animal; for Days >=3: animal days with mucositis score of three or more; for Chi Sq v control: days with score >=3
Text: The acute radiation model in hamsters, developed by the Principle Investigator, has proven to be an accurate, efficient and cost-effective technique to provide a preliminary evaluation of anti-mucositis compounds. The course of mucositis in this model is well defined and results in peak scores approximately 14-16 Days following radiation. The acute model has little systemic toxicity, resulting in few hamster deaths, thus permitting the use of smaller groups (N=7-8) for initial efficacy studies. It has also been used to study specific mechanistic elements in the pathogenesis of mucositis. Molecules that show efficacy in the acute radiation model may be further evaluated in the more complex models of fractionated radiation, chemotherapy, or concomitant therapy.
In this study, an acute radiation dose of 40 Gy on day 0 was administered. Clinically significant mucositis was observed on days 12 through 28.
Forty (40) Syrian Golden Hamsters were given an acute radiation dose of 40 Gy directed to their left buccal cheek pouch on day 0. Test material SCV-07 was given by sub-cutaneous injection at 100 μg/kg or 1 mg/kg once or twice daily. Dosing began one day before radiation (day −1) and continued until day 20. Mucositis was evaluated clinically starting on day 6, and continuing on alternate days until day 28.
The grade of mucositis was scored, beginning day 6, and for every second day thereafter, through and including day 28. The effect on mucositis of each drug treatment compared to placebo was assessed according to the following parameters:
On each evaluation day, the number of animals with a blinded mucositis score of ≧3 in each drug treatment group was compared to the control group. Differences were compared on a cumulative basis and statistical significance was determined by chi-square analysis. Efficacy, in this analysis, is defined by a significant reduction in the number of days that a group of animals had ulcerations (scores ≧3) when compared to the control group. This same test was also used to evaluate differences between different drug treatment groups.
For each evaluation day the scores of the control group were compared to those of the treated groups using non-parametric rank sum analysis. Treatment success was considered as a statistically significant lowering of scores in the treated group on 2 or more days from day 6 to day 28.
Forty Syrian Golden Hamsters were divided into five (5) groups of eight (8) animals each. All animals received a single dose of acute radiation of 40 Gy directed to their left buccal cheek pouch on day 0. This was accomplished by anesthetizing the animals and everting the left buccal pouch, while protecting the rest of the animals with a lead shield. Test materials were given by sub-cutaneous injection once daily as detailed in Table 5. Mucositis was evaluated clinically starting on Day 6, and continuing on alternate days until day 28.
Mucositis was induced using a standardized acute radiation protocol. A single dose of radiation (40 Gy/dose) was administered to all animals on day 0. Radiation was generated with a 160 kilovolt potential (15-ma) source at a focal distance of 30 cm, hardened with a 0.35 mm Cu filtration system. Irradiation targeted the left buccal pouch mucosa at a rate of 3.2 Gy/minute. Prior to irradiation, animals were anesthetized with an intraperitoneal injection of Ketamine (160 mg/kg) and Xylazine (8 mg/kg). The left buccal pouch was everted, fixed and isolated using a lead shield to protect all other parts of the hamster's body.
The mucositis score, weight change and survival were measured throughout the study as described above. For the evaluation of mucositis, the animals were anesthetized with an inhalation anesthetic, and the left pouch everted. Mucositis was scored visually by comparison to a validated photographic scale, ranging from 0 for normal, to 5 for severe ulceration (clinical scoring). In descriptive terms, this scale is defined as follows: […]

[1] = 100 ug/kg once daily from day -1 to 20
[2] = 1 mg/kg once daily from day -1 to 20
[3] = 1 mg/kg twice daily from day -1 to 20

## N[C@H](CCC(=O)N[C@@H](Cc1c[nH]c2ccccc12)C(=O)O)C(=O)O [SCV-07, γ-D-glutamyl-L-tryptophan]
[1]
  day of peak mean mucositis score: 16
  peak mean mucositis score: 2.2
100 ug/kg twice daily from day -1 to 20
  peak mean mucositis score: 2.5
100 ug/kg, bid
  % Days >=3: 8.9%
  Days <3: 175
  Days >=3: 17
  Chi Sq v control: 21.4010
100 ug/kg, qd
  % Days >=3: 6.3%
  Days <3: 180
  Days >=3: 12
  Chi Sq v control: 27.828
[2]
  day of peak mean mucositis score: 14
  peak mean mucositis score: 2.9
1 mg/kg once daily on days -1 to 20, any day of the study
  improvement in daily mucositis scores relative to controls (Mann-Whitney rank sum): no significant improvement in mucositis on any day
[3]
  day of peak mean mucositis score: 14
  peak mean mucositis score: 2.6
1 mg/kg, bid
  % Days >=3: 12.5%
  Days <3: 168
  Days >=3: 24
  Chi Sq v control: 12.7360
1 mg/kg, qd
  % Days >=3: 28.1%
  Days <3: 138
  Days >=3: 54
  Chi Sq v control: 0.0000
Day 6
  Mucositis score: 1 (6×) and 0 (2×)
Day 8
  Mucositis score: 1
Day 10
  Mucositis score: 2 (4×) and 1 (4×)
Day 12
  Mucositis score: 2 (7×) and 3
Day 14
  Mucositis score: 2
Day 16
  Mucositis score: 2
Day 18
  Mucositis score: 2 (5×) and 3 (2×) and 1
Day 20
  Mucositis score: 2 (6×) and 3 (2×)
Day 22
  Mucositis score: 1 (2×) and 2 (7×)
Day 24
  Mucositis score: 1 (3×) and 2 (6×)
Day 26
  Mucositis score: 1 (2×) and 2 (7×)
Day 28
  Mucositis score: 1 (7×) and 2 (2×)
chi-squared test, no statistically significant difference
  P, number of animal days with a score of 3 or higher, 100 ug/kg once daily vs 1 mg/kg twice daily: 0.054
